These results are taken from PMC6965684, “Characterization of binding, functional activity, and contractile responses of the selective 5‐HT1F receptor agonist lasmiditan” (British Journal of Pharmacology, 2019).

Assay [1] concerns the target T1, 5-HT1F receptor (Homo sapiens, UniProt P30939).
T1 construct: gene HTR1F; full-length human recombinant receptor in CHO-K1 cells (Ogeda)
T1 sequence (P30939 1-366): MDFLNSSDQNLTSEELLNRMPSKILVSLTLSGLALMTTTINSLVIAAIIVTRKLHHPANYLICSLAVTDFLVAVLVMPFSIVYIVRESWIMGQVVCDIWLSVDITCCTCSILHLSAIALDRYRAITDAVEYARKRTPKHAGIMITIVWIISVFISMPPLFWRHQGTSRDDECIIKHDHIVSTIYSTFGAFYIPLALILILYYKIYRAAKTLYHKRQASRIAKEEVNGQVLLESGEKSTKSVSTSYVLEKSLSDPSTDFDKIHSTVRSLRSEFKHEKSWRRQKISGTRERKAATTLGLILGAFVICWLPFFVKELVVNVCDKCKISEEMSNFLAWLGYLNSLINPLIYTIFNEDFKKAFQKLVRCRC
As to the kind of experiment: cell-based. The following applies: cAMP. On the set-up: species or system CHO-K1; cAMP HTRF agonist assay, Gi coupled receptors, inhibition of stimulated cAMP. How it is done: Concentration–response curves were performed in parallel with the agonists. For agonist tests, 12 μl of cells were mixed with 6 μl of the test compound (at increasing concentrations) and 6 μl of https://www.guidetopharmacology.org/GRAC/LigandDisplayForward?ligandId=5190 and then incubated for 30 min at room temperature. After addition of the lysis buffer and 1‐hr incubation, cAMP concentrations were estimated according to the manufacturer specification with the HTRF kit (Cisbio International, Codelet, France). In brief, increasing concentrations of agonists were added to stably transfected cells in buffer in an Optiplate (PerkinElmer Life Sciences, Massachusetts, USA). The plates were incubated, and cells were then lysed by the addition of HTRF reagents (cAMP‐Cryptate and anti‐cAMP‐d2 reagents) and diluted in lysis buffer, followed by incubation at room temperature. As 5‐HT1B receptors have been reported in naïve CHO‐K1 cells (George, Bungay, & Naylor, 1997), we also tested https://www.guidetopharmacology.org/GRAC/LigandDisplayForward?ligandId=4 (5‐CT, the reference agonist for the 5‐HT1B receptor), in CHO‐K1 cells transfected with a non‐5‐HT, GPCR. […] For the new assays developed in this study (i.e., 5‐ht1E receptor), the two independent pIC50 determined must be concordant with a 1 log unit interval for the assays to be validated. […]

Assay [2] addresses T1, 5-HT1F receptor. As to the kind of experiment: radioligand competition, CHO-K1 membranes. It is filed as binding. Particulars: radioligand listed in supplement Table S1; unreliable (pIC50 printed as <[…]). An excerpt: radioligand competition, CHO-K1 membranes on 5-HT1F receptor
For orientation: Displacement assays read how much labelled ligand stays bound in the presence of the test substance.

Structures can show the parent of a compound that is named as a salt.

By EC50 is commonly meant the concentration that produces a half-maximal response. Higher therefore signals a need for much substance. As for `CNC1CCc2[nH]c3ccc(C(N)=O)cc3c2C1` (racemic) [Frovatriptan racemate], the EC50 at 5-HT1F receptor [1] was 0.0794 µM.

Take `N#Cc1ccc(N2CCN(C(=O)COc3ccc4[nH]cc(CCN)c4c3)CC2)cc1` [Donitriptan hydrochloride]: on 5-HT1F receptor [2], the “5-HT1F / pKi” value is 5.18 -log M.

Compound `CN(C)[C@@H]1CCc2[nH]c3ccc(NC(=O)c4ccc(F)cc4)cc3c2C1` [LY344864 hydrochloride] gave an EC50 on 5-HT1F receptor [1] of 0.00191 µM.
